Laboratory results published in the supplement of paper PMC11451515.

Legend:
Experiment in all cases: AUC of viability dose-response curve (% viability x log10 dose units); higher = less sensitive
Conditions in all cases: 48 h
NOMO1 = tested on: NOMO1
How it was run: (§1)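 Leukemia cells adapted to each medium (500 or 1000 cells/well, 1536-well plates) were exposed to library compounds in DMSO for 48 h at 37°C at 11 threefold doses, 47 μM to 0.79 nM. Luminescence by CellTiter-Glo One was normalised per plate to DMSO and cell-free wells, then fitted with a four-parameter log-logistic curve on log10 dose. Curves above full viability were scaled and quality-control failures removed before area under the curve was integrated by trapezoidal rule.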

P12-Ichikawa = tested on: P12-Ichikawa
How it was run: as §1

SEM cells = tested on: SEM cells
How it was run: as §1

[1] = RPMI 5 mM glucose + 10% dialyzed FBS

| Structure (SMILES) | AUC of viability dose-response curve (NOMO1; HPLM + 10% dialyzed FBS) | AUC of viability dose-response curve (NOMO1; RPMI 5 mM glucose + 10% FBS) | AUC of viability dose-response curve (NOMO1; [1]) | AUC of viability dose-response curve (P12-Ichikawa; HPLM + 10% dialyzed FBS) | AUC of viability dose-response curve (P12-Ichikawa; RPMI 5 mM glucose + 10% FBS) | AUC of viability dose-response curve (P12-Ichikawa; [1]) | AUC of viability dose-response curve (SEM cells; HPLM + 10% dialyzed FBS) | AUC of viability dose-response curve (SEM cells; RPMI 5 mM glucose + 10% FBS) | AUC of viability dose-response curve (SEM cells; [1]) |
| --- | --- | --- | --- | --- | --- | --- | --- | --- | --- |
| ClC1=CC=C2N/C3=N/C(=O)CN3CC2=C1Cl | 456 | 445 | 410 | 464 | 456 | 452 | 468 | 446 | 456 |
| O=C1CCC[C@@H]2[C@H]3CCCN4CCC[C@@H](CN12)[C@@H]34 |  |  |  | 426 | 396 | 389 | 324 | 390 | 347 |
| O=C(CS(=O)Cc1ccco1)NC/C=C\COc1cc(CN2CCCCC2)ccn1 (stereo not drawn) | 464 | 440 | 474 | 459 | 463 | 450 | 455 | 452 | 446 |
| CC[N+](CC)(CC)CCOc1cccc(OCC[N+](CC)(CC)CC)c1OCC[N+](CC)(CC)CC | 400 | 439 | 445 | 451 | 455 | 456 | 423 | 463 | 477 |
| c1ccc2c(Cc3c[nH]c4ccccc34)c[nH]c2c1 | 440 | 434 | 444 | 434 | 420 | 417 | 385 | 396 | 376 |
| OC[C@H]1O[C@H](C[C@@H]1O)N2\C=C(F)/C(=O)NC2=O | 250 | 347 | 214 | 244 | 298 | 259 | 243 | 352 | 198 |
| O=[N+]([O-])c1ncc[nH]1 | 416 | 402 | 400 | 418 | 395 | 414 | 402 | 444 | 459 |
| CC(C)(F)C[C@H](N[C@@H](c1ccc(-c2ccc([S+](C)(=O)[O-])cc2)cc1)C(F)(F)F)C(=O)NC1(C#N)CC1 | 467 | 427 | 446 | 471 | 471 | 474 | 454 | 452 | 475 |
| CN(C)C1=CC(=CC=C1)C\2=C\3C(=O)N(NC3=C/C(=O)N2C)C4=CC=CC=C4Cl | 292 | 314 | 314 | 312 | 327 | 342 | 322 | 317 | 311 |
| N[S+](=O)([O-])c1cc2c(cc1Cl)NC(C(Cl)Cl)N[S+]2(=O)[O-] (stereo not drawn) | 450 | 453 | 442 | 456 | 459 | 467 | 431 | 450 | 447 |
| CO[C@@]12[C@H](COC(N)=O)C/3=C(N1C[C@@H]4N[C@H]24)/C(=O)/C(=C(N)\C3=O)C | 449 | 453 | 446 | 472 | 443 | 419 | 453 | 431 | 435 |
| C/C(=N\NC(=S)N1CCC1)c1ccccn1 | 122 | 140 | 121 | 127 | 120 | 122 |  |  |  |
| CCC[S+](=O)([O-])Nc1ccc(F)c(C(=O)c2c[nH]c3ncc(Cl)cc23)c1F | 403 | 437 | 440 | 439 | 450 | 431 | 409 | 419 | 425 |
| CC(C)=CCC/C(C)=C/CC/C(C)=C/CC/C(C)=C/CC/C(C)=C/CC/C(C)=C/CC/C(C)=C/CC/C(C)=C/CC/C(C)=C/CO | 450 | 462 | 455 | 467 | 457 | 465 | 475 | 436 | 431 |
| CN1C(=O)C(=C\C2=C1N=C(NC3=CC=CC(=C3)C(O)=O)N=C2)/C4=C(Cl)C=CC=C4Cl | 465 | 467 | 461 | 468 | 465 | 463 | 439 | 405 | 426 |
| OC1=CC=C(C=C1)\C2=C\OC3=C(C(=CC(=C3)O)O)C2=O | 459 | 455 | 473 | 466 | 471 | 468 | 452 | 395 | 433 |
| CCn1c(-c2nonc2N)nc2c(C#CC(C)(C)O)ncc(OC[C@H]3CCCNC3)c21 | 360 | 388 | 390 | 358 | 282 | 313 | 341 | 397 | 345 |
| OC1=CC2=C(C=C1)C(=O)\C(=C(O2)\C3=CC(=C(O)C=C3)O)O |  |  |  | 430 | 420 | 406 | 456 | 456 | 418 |
| O=C1\C=C/C=C2/[C@H]3CNC[C@H](C3)CN12 | 447 | 458 | 464 | 457 | 459 | 459 | 462 | 466 | 456 |
| N[C@H]2CN(CC12CC1)c3c(F)cc4c(c3Cl)[N@@](C=C(C4=O)C(=O)O)C5C[C@H]5F (stereo partly drawn) | 420 | 387 | 413 | 439 | 417 | 395 | 412 | 431 | 398 |
| N\C1=N\C2=C(N=C[N]2COCCO)C(=O)N1 | 464 | 461 | 467 | 472 | 465 | 473 | 451 | 460 | 431 |
| O=C(NCCCCN1CCOCC1)c1cc2ccccc2o1 | 459 | 462 | 451 | 467 | 440 | 448 | 441 | 440 | 457 |
| O=S(=O)([O-])CCS.[Na+] | 367 | 341 | 351 | 379 | 383 | 407 | 452 | 443 | 405 |
| CC(C)=CCC/C(C)=C/CC/C(C)=C/CSc1ccccc1C(=O)O | 393 | 432 | 395 | 402 | 366 | 390 | 348 | 355 | 374 |
| CC(C)(S)[C@@H](N)C(=O)O | 469 | 472 | 465 | 471 | 468 | 476 | 439 | 431 | 455 |

| Structure (SMILES) | AUC of viability dose-response curve (NOMO1; HPLM + 10% dialyzed FBS) | AUC of viability dose-response curve (NOMO1; RPMI 5 mM glucose + 10% FBS) | AUC of viability dose-response curve (NOMO1; [1]) | AUC of viability dose-response curve (P12-Ichikawa; HPLM + 10% dialyzed FBS) | AUC of viability dose-response curve (P12-Ichikawa; RPMI 5 mM glucose + 10% FBS) | AUC of viability dose-response curve (P12-Ichikawa; [1]) | AUC of viability dose-response curve (SEM cells; HPLM + 10% dialyzed FBS) | AUC of viability dose-response curve (SEM cells; RPMI 5 mM glucose + 10% FBS) | AUC of viability dose-response curve (SEM cells; [1]) |
| --- | --- | --- | --- | --- | --- | --- | --- | --- | --- |
| C[C@@H]1CN(Cc2ccc(F)cc2)[C@@H](C)CN1C(=O)c1cc2c(C(=O)C(=O)N(C)C)cn(C)c2cc1Cl | 467 | 474 | 475 | 471 | 472 | 471 | 462 | 413 | 449 |
| CC(C)N(C[C@H]1O[C@@H](n2cnc3c(N)ncnc32)[C@H](O)[C@@H]1O)[C@H]1C[C@@H](CCc2nc3cc(C(C)(C)C)ccc3[nH]2)C1 | 386 | 450 | 429 | 320 | 450 | 383 | 411 | 333 | 399 |
| Cc1ccc(C(=O)Nc2cccc(C(F)(F)F)c2)cc1-c1ccc2nc(NCCN3CCOCC3)ncc2c1 | 384 | 388 | 384 | 418 | 408 | 408 | 384 | 378 | 378 |
| COc1ccc(C(CN(C)C)C2(O)CCCCC2)cc1 (stereo not drawn) |  |  |  | 459 | 405 | 461 | 476 | 475 | 424 |
| CC(NC(C)(C)C)C(=O)c1cccc(Cl)c1 (stereo not drawn) | 448 | 476 | 456 | 470 | 473 | 472 | 444 | 433 | 436 |
| CN1CCN(c2c(F)cc3c(=O)c(C(=O)O)cn(CCF)c3c2F)CC1 | 466 | 447 | 461 | 459 | 457 | 445 | 439 | 458 | 466 |
| O=C(CC12CC3CC(CC(C3)C1)C2)Nc1cccc2nc(NCCNCCO)ccc12 | 436 | 406 | 399 | 424 | 410 | 412 | 386 | 405 | 392 |
| O=C(O)CCCCC(CCSCc1ccccc1)SCc1ccccc1 (stereo not drawn) | 446 | 457 | 451 | 433 | 462 | 457 | 463 | 458 | 467 |
| CC1=C(/C=C/C(C)=C/C=C/C(C)=C\C(=O)O)C(C)(C)CCC1 | 438 | 408 | 420 | 445 | 400 | 415 | 405 | 450 | 379 |
| COc1ccc(C(=O)c2c(C)n(CCN3CCOCC3)c3ccccc23)cc1 | 466 | 439 | 430 | 456 | 463 | 434 | 459 | 400 | 449 |
| COc1ccc(OC)c(-c2nnc3ccc(-c4ccc(OC)c(O[C@@H]5CCOC5)c4)nn23)c1 | 463 | 477 | 469 | 473 | 458 | 466 | 477 | 470 | 473 |
| CC\12CCC(=O)\C=C1CCC3C2CCC4(C)C3CCC4(O)C#C (stereo not drawn) | 456 | 430 | 428 | 442 | 452 | 421 | 452 | 461 | 458 |
| O=C(CCc1ccc(O)cc1)c1c(O)cc(O)cc1O | 457 | 460 | 455 | 459 | 467 | 459 | 433 | 438 | 434 |
| Cc1nc2cc(C(=O)N3CCC4(CC3)CC(=O)c3c(cnn3C(C)C)C4)ccc2[nH]1 | 465 | 471 | 455 | 457 | 469 | 458 |  |  |  |
| O=C(Nc1c[nH]nc1-c1nc2cc(CN3CCOCC3)ccc2[nH]1)NC1CC1 |  |  |  | 270 | 282 | 304 | 219 | 202 | 199 |
| CC[C@]12CC[C@H]3[C@@H](CCC/4=C/C(=O)CC[C@H]34)[C@@H]1CC[C@@]2(O)C#C |  |  |  | 413 | 405 | 386 | 417 | 448 | 452 |
| CCN(CC)CCOc1ccc(Cc2ccccc2)cc1 | 403 | 431 | 464 | 417 | 446 | 409 | 442 | 380 | 409 |
| COc1cc(Nc2c(C#N)cnc3cc(OCCCN4CCN(C)CC4)c(OC)cc23)c(Cl)cc1Cl | 370 | 397 | 407 | 372 | 382 | 382 |  |  |  |
| N#C/C(=C\c1ccc(O)c(O)c1)C(=O)NCc1ccccc1 | 446 | 447 | 460 | 448 | 436 | 421 | 447 | 440 | 440 |
| O=C([O-])C[C@H](O)C[C@H](O)/C=C/c1c(C2CC2)nc2ccccc2c1-c1ccc(F)cc1 | 443 | 450 | 440 | 407 | 375 | 390 | 395 | 418 | 413 |
| NC(=O)[C@H]1CCS[C@@H]2C[C@]3(CCCN3C(=O)Cc3ccc(NC(=O)COc4ccc(Cl)cc4Cl)cc3)C(=O)N12 | 356 | 378 | 409 | 316 | 343 | 362 | 376 | 325 | 362 |
| CN(C)c1ccc2nc3ccc(N(C)C)cc3[s+]c2c1 | 401 | 374 | 376 | 387 | 386 | 395 |  |  |  |
| C=C1C(=O)[C@@]23C(CC[C@@H]1[C@H]2O)[C@@]12CO[C@]3(O)[C@@H](O)[C@@H]1C(C)(C)CC[C@@H]2O (stereo partly drawn) | 435 | 444 | 451 | 409 | 394 | 389 |  |  |  |
| Cc1nn(C)c(COc2ccc(N3CCN([S+](=O)([O-])N(C)C)CC3)cc2)c1-c1cccc2c(CCCOc3cccc4ccccc34)c(C(=O)O)n(CCN3CCOCC3)c12 |  |  |  | 392 | 463 | 456 | 465 | 377 | 458 |
